From patent US7141592B2, “Substituted oxadiazolidinediones” (Wyeth, priority 2003, dated 2006)

Target: T1, recombinant human plasminogen activator inhibitor-1 (PAI-1) (Homo sapiens, UniProt P05121)
T1 construct: purchased Molecular Innovations, Royal Oak, Mich
Assay: Primary screen for the PAI-1 inhibition (chromogenic tPA activity, Spectrozyme-tPA)
Type: biochemical
Conditions: compound at 100 μM
Procedure: Test compounds are dissolved in DMSO at a final concentration of 10 mM, then diluted 100× in physiologic buffer. The inhibitory assay is initiated by the addition of the substituted oxadiazolidinedione (1–100 μM final concentration, maximun DMSO concentration of 0.2%) in a pH 6.6 buffer containing 140 nM recombinant human plasminogen activator inhibitor-1 (PAI-1; Molecular Innovations, Royal Oak, Mich.). Following a 1 hour incubation at room temperature, 70 nM of recombinant human tissue plasminogen activator (tPA) is added, and the combination of the substituted oxadiazolidinedione, PAI-1 and tPA is incubated for an additional 30 minutes. Following the second incubation, Spectrozyme-tPA (American Diagnostica, Greenwich, Conn.), a chromogenic substrate for tPA, is added and absorbance read at 405 nm at 0 and 60 minutes. Relative PAI-1 inhibition is equal to the residual tPA activity in the presence of the test compound and PAI-1. Control treatments include the complete inhibition of tPA by PAI-1 at the molar ratio employed (2:1), and the absence of any effect of the substituted oxadiazolidinedione on tPA alone.

T1 sequence (P05121 24-402): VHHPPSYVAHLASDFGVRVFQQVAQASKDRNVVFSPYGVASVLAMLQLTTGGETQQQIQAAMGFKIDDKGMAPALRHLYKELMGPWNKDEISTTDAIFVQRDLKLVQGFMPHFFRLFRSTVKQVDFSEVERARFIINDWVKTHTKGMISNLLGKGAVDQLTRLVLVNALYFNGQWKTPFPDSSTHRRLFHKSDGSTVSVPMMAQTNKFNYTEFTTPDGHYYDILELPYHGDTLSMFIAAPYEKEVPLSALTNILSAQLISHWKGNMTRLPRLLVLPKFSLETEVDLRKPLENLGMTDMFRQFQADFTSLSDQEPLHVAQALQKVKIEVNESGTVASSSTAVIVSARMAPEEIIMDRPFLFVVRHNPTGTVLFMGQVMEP

Row | Compound | inhibition at 100 µM [%] | % Inhibition @ 100 μM [%]
1 | 2-({4′-[(3-bromobenzyl)oxy]-1,1′-biphenyl-3-yl}methyl)-1,2,4-oxadiazolidine-3,5-dione [Compound 52] | – | 80
2 | 2-({4′-[(4-bromobenzyl)oxy]-1,1′-biphenyl-3-yl}methyl)-1,2,4-oxadiazolidine-3,5-dione [Compound 50] | – | 41
3 | 2-({4′-[(4-tert-butylbenzyl)oxy]-1,1′-biphenyl-3-yl}methyl)-1,2,4-oxadiazolidine-3,5-dione [Compound 48] | – | 23
4 | 2-[(3′-{[3-(trifluoromethyl)benzyl]oxy}-1,1′-biphenyl-3-yl)methyl]-1,2,4-oxadiazolidine-3,5-dione [Compound 41] | – | 81
5 | 2-[(3′-{[4-(trifluoromethyl)benzyl]oxy}-1,1′-biphenyl-3-yl)methyl]-1,2,4-oxadiazolidine-3,5-dione [Compound 37] | – | 3
6 | 2-[(4′-{[3,5-bis(trifluoromethyl)benzyl]oxy}-1,1′-biphenyl-3-yl)methyl]-1,2,4-oxadiazolidine-3,5-dione [Compound 51] | – | 65
7 | 2-[(4′-{[4-(trifluoromethyl)benzyl]oxy}-1,1′-biphenyl-3-yl)methyl]-1,2,4-oxadiazolidine-3,5-dione [Compound 49] | – | 28
8 | 2-{3-[3-(4-isobutylphenoxy)prop-1-ynyl]benzyl}-1,2,4-oxadiazolidine-3,5-dione [Compound 70] | – | 76
9 | 2-{4-[3-(4-isobutylphenoxy)prop-1-ynyl]benzyl}-1,2,4-oxadiazolidine-3,5-dione [Compound 64] | – | 65
10 | 2-{[4-(phenylethynyl)thien-2-yl]methyl}-1,2,4-oxadiazolidine-3,5-dione [Compound 58] | – | 45
11 | 2-{[5-(phenylethynyl)thien-2-yl]methyl}-1,2,4-oxadiazolidine-3,5-dione [Compound 59] | – | 60
12 | C=CCn1cc(Cn2oc(=O)[nH]c2=O)c2cc(OCc3ccc(C(C)(C)C)cc3)ccc21 [Compound 2, 2-({1-allyl-5-[(4-tert-butylbenzyl)oxy]-1H-indol-3-yl}methyl)-1,2,4-oxadiazolidine-3,5-dione] | 100 | –
13 | CCn1cc(Cn2oc(=O)[nH]c2=O)c2cc(OCc3ccc(C(C)(C)C)cc3)ccc21 [Compound 3, 2-({5-[(4-tert-butylbenzyl)oxy]-1-ethyl-1H-indol-3-yl}methyl)-1,2,4-oxadiazolidine-3,5-dione] | 9 | –
14 | CCn1cc(Cn2oc(=O)[nH]c2=O)c2cc(OCc3cc(C(F)(F)F)cc(C(F)(F)F)c3)ccc21 [Compound 6, 2-[(5-{[3,5-bis(trifluoromethyl)benzyl]oxy}-1-ethyl-1H-indol-3-yl)methyl]-1,2,4-oxadiazolidine-3,5-dione] | 28 | –
15 | O=c1[nH]c(=O)n(Cc2cn(Cc3ccccc3)c3ccc(OCc4cccc(Br)c4)cc23)o1 [Compound 8, 2-({1-benzyl-5-[(3-bromobenzyl)oxy]-1H-indol-3-yl}methyl)-1,2,4-oxadiazolidine-3,5-dione] | 94 | –
16 | Cc1cccc(COc2ccc3c(c2)c(Cn2oc(=O)[nH]c2=O)cn3Cc2ccccc2)c1 [Compound 11, 2-({1-benzyl-5-[(3-methylbenzyl)oxy]-1H-indol-3-yl}methyl)-1,2,4-oxadiazolidine-3,5-dione] | 59 | –
17 | O=c1[nH]c(=O)n(Cc2cn(Cc3ccccc3)c3ccc(OCc4ccc(Br)cc4)cc23)o1 [Compound 14, 2-({1-benzyl-5-[(4-bromobenzyl)oxy]-1H-indol-3-yl}methyl)-1,2,4-oxadiazolidine-3,5-dione] | 100 | –
18 | C#CCn1cc(Cn2oc(=O)[nH]c2=O)c2cc(OCc3ccccc3Cl)ccc21 [Compound 17, 2-{[5-[(2-chlorobenzyl)oxy]-1-(2-propynyl)-1H-indol-3-yl]methyl}-1,2,4-oxadiazolidine-3,5-dione] | 49 | –
19 | C#CCn1cc(Cn2oc(=O)[nH]c2=O)c2cc(OCc3ccc(Cl)c(Cl)c3)ccc21 [Compound 18, 2-{[5-[(3,4-dichlorobenzyl)oxy]-1-(2-propynyl)-1H-indol-3-yl]methyl}-1,2,4-oxadiazolidine-3,5-dione] | 100 | –
20 | O=c1[nH]c(=O)n(Cc2cn(Cc3ccccc3)c3ccc(OCc4ccc(Cl)c(Cl)c4)cc23)o1 [Compound 19, 2-({1-benzyl-5-[(3,4-dichlorobenzyl)oxy]-1H-indol-3-yl}methyl)-1,2,4-oxadiazolidine-3,5-dione] | 79 | –
21 | C=CCn1cc(Cn2oc(=O)[nH]c2=O)c2cc(OCc3ccc4ccccc4c3)ccc21 [Compound 21, 2-{[1-allyl-5-(2-naphthylmethoxy)-1H-indol-3-yl]methyl}-1,2,4-oxadiazolidine-3,5-dione] | 98 | –

More lines, main results first:

Row | inhibition at 100 µM [%] | Compound | % Inhibition @ 100 μM [%]
22 | 96 | C=CCn1cc(Cn2oc(=O)[nH]c2=O)c2cc(OCc3ccc(C(F)(F)F)cc3)ccc21 [Compound 4, 2-[(1-allyl-5-{[4-(trifluoromethyl)benzyl]oxy}-1H-indol-3-yl)methyl]-1,2,4-oxadiazolidine-3,5-dione] | –
23 | 100 | C=CCn1cc(Cn2oc(=O)[nH]c2=O)c2cc(OCc3cc(C(F)(F)F)cc(C(F)(F)F)c3)ccc21 [Compound 5, 2-[(1-allyl-5-{[3,5-bis(trifluoromethyl)benzyl]oxy}-1H-indol-3-yl)methyl]-1,2,4-oxadiazolidine-3,5-dione] | –
24 | 94 | O=c1[nH]c(=O)n(Cc2cn(Cc3ccccc3)c3ccc(OCc4cc(C(F)(F)F)cc(C(F)(F)F)c4)cc23)o1 [Compound 7, 2-[(1-benzyl-5-{[3,5-bis(trifluoromethyl)benzyl]oxy}-1H-indol-3-yl)methyl]-1,2,4-oxadiazolidine-3,5-dione] | –
25 | 100 | C#CCn1cc(Cn2oc(=O)[nH]c2=O)c2cc(OCc3ccc(C(F)(F)F)cc3)ccc21 [Compound 12, 2-[(1-(2-propynyl)-5-{[4-(trifluoromethyl)benzyl]oxy}-1H-indol-3-yl)methyl]-1,2,4-oxadiazolidine-3,5-dione] | –
26 | 100 | O=c1[nH]c(=O)n(Cc2cn(Cc3ccccc3)c3ccc(OCc4ccc(C(F)(F)F)cc4)cc23)o1 [Compound 13, 2-[(1-benzyl-5-{[4-(trifluoromethyl)benzyl]oxy}-1H-indol-3-yl)methyl]-1,2,4-oxadiazolidine-3,5-dione] | –
27 | 91 | C#CCn1cc(Cn2oc(=O)[nH]c2=O)c2cc(OCc3cc(C(F)(F)F)cc(C(F)(F)F)c3)ccc21 [Compound 15, 2-{[5-{[3,5-bis(trifluoromethyl)benzyl]oxy}-1-(2-propynyl)-1H-indol-3-yl]methyl}-1,2,4-oxadiazolidine-3,5-dione] | –
28 | 84 | C#CCn1cc(Cn2oc(=O)[nH]c2=O)c2cc(OCc3ccc4ccccc4c3)ccc21 [Compound 20, 2-{[5-(2-naphthylmethoxy)-1-(2-propynyl)-1H-indol-3-yl]methyl}-1,2,4-oxadiazolidine-3,5-dione] | –
29 | 92 | O=c1[nH]c(=O)n(Cc2cn(Cc3ccccc3)c3ccc(OCc4ccc5ccccc5c4)cc23)o1 [Compound 22, 2-{[1-benzyl-5-(2-naphthylmethoxy)-1H-indol-3-yl]methyl}-1,2,4-oxadiazolidine-3,5-dione] | –
